Read-outs that look alike come from different tables or passages of the source.
Biological target: Aurora A (Homo sapiens (Human), UniProt O14965)
Assay: Aurora A kinase inhibition (IC50)
Format: biochemical

Sequence of Aurora A (O14965 whole entry): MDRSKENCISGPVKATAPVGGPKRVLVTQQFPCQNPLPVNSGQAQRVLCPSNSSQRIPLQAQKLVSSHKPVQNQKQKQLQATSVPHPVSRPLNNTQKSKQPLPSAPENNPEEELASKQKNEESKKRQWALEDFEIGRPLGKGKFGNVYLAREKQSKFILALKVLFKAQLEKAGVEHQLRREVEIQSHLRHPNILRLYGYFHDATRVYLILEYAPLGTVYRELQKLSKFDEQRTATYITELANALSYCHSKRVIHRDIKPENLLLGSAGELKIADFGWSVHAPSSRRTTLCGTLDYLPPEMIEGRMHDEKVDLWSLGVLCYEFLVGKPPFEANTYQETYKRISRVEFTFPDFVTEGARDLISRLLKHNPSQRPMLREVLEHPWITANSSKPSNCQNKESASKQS

| SMILES | IC50 [nM] | IC50 (read-out: Aurora A IC50) [nM] |
| --- | --- | --- |
| O=C(Nc1ccc(Nc2ccnc3[nH]c(=O)c4c(c23)CCCC4)cc1)c1ccc(F)cc1C(F)(F)F [Compound 6, 4-Fluoro-N-[4-(6-oxo-5,6,7,8,9,10-hexahydrobenzo[c][1,8]naphthyridin-1-ylamino)-phenyl]-2-trifluoromethyl-1-benzamide] | 1 to 10 | – |
| O=c1[nH]c2nccc(Cl)c2c2cn(C(c3ccccc3)(c3ccccc3)c3ccccc3)nc12 [Compound 31, 9-Chloro-2-trityl-2H-pyrazolo[3,4-c][1,8]naphthyridin-4(5H)-one] | – | 101 to 1000 |
| O=C(c1cccn(-c2ccc(F)cc2)c1=O)N1CCOc2cc(Oc3ccnc4[nH]c(=O)c5c(c34)CCCC5)ccc21 [Compound 49, 1-{4-[1-(4-Fluoro-phenyl)-2-oxo-1,2-dihydro-pyridine-3-carbonyl]-3,4-dihydro-2H-benzo[1,4]oxazin-7-yloxy}-7,8,9,10-tetrahydro-5H-benzo[c][1,8]naphthyridin-6-one] | – | 101 to 1000 |
| COc1ccc(Nc2ccnc3[nH]c(=O)c4ccoc4c23)cc1 [Compound 38, 9-(4-Methoxy-phenylamino)-5H-furo[3,2-c][1,8]naphthyridin-4-one] | 101 to 1000 | – |
| O=C(Nc1ccc(Nc2ccnc3[nH]c(=O)c4c(c23)CCCC4)cc1)c1ccc(F)cc1 [Compound 10, 4-Fluoro-N-[4-(6-oxo-5,6,7,8,9,10-hexahydrobenzo[c][1,8]naphthyridin-1-ylamino)-phenyl]-1-benzamide] | 1 to 10 | – |
| O=C(Nc1ccc(Nc2ccnc3[nH]c(=O)c4c(c23)CCCC4)cc1F)c1ccc(F)cc1C(F)(F)F [Compound 54, 4-Fluoro-N-[2-fluoro-4-(6-oxo-5,6,7,8,9,10-hexahydrobenzo[c][1,8]naphthyridin-1-ylamino)-phenyl]-2-trifluoromethyl-benzamide] | 1 to 10 | – |
| O=c1[nH]c2nccc(Nc3ccc(Cl)cc3)c2c2occc12 [Compound 39, 9-(4-Chloro-phenylamino)-5H-furo[3,2-c][1,8]naphthyridin-4-one] | 101 to 1000 | – |
| O=C(Nc1ccc(Nc2ccnc3[nH]c(=O)c4c(c23)CCCC4)cc1)c1cc(Cl)cc(Cl)c1 [Compound 12, 3,5-Dichloro-N-[4-(6-oxo-5,6,7,8,9,10-hexahydrobenzo[c][1,8]naphthyridin-1-ylamino)-phenyl]-1-benzamide] | – | 11 to 100 |
| O=C(Nc1ccc(Nc2ccnc3[nH]c(=O)c4c(c23)CCCC4)cc1)c1cccc(C(F)(F)F)c1F [Compound 11, 2-Fluoro-N-[4-(6-oxo-5,6,7,8,9,10-hexahydrobenzo[c][1,8]naphthyridin-1-ylamino)-phenyl]-3-trifluoromethyl-benzamide] | 1 to 10 | – |
| O=c1[nH]c2nccc(Oc3ccc4c(c3)OCCN4)c2c2c1CCCC2 [Compound 47, 1-(3,4-Dihydro-2H-benzo[1,4]oxazin-7-yloxy)-7,8,9,10-tetrahydro-5H-benzo[c][1,8]naphthyridin-6-one] | – | 101 to 1000 |
| O=C(Nc1ccc(Nc2ccnc3[nH]c(=O)c4n[nH]cc4c23)cc1)c1ccc(F)cc1C(F)(F)F [Compound 34, 4-fluoro-N-(4-(4-oxo-4,5-dihydro-2H-pyrazolonaphthyridin-9-ylamino)phenyl)-2-(trifluoromethyl)benzamide] | 1 to 10 | – |
| O=C(Nc1ccc(Nc2ccnc3[nH]c(=O)c4c(c23)CCCC4)c(F)c1)c1ccc(F)c(F)c1 [Compound 55, 3,4-Difluoro-N-[3-fluoro-4-(6-oxo-5,6,7,8,9,10-hexahydrobenzo[c][1,8]naphthyridin-1-ylamino)-phenyl]-1-benzamide] | 1 to 10 | – |
| O=C(Nc1ccc(Nc2ccnc3[nH]c(=O)c4c(c23)CCCC4)cc1)c1c(Cl)cccc1Cl [Compound 13, 2,6-Dichloro-N-[4-(6-oxo-5,6,7,8,9,10-hexahydrobenzo[c][1,8]naphthyridin-1-ylamino)-phenyl]-1-benzamide] | 1 to 10 | – |
| O=C(Nc1ccc(Nc2ccnc3[nH]c(=O)c4c(c23)CCCC4)c(F)c1)c1cccc(F)c1F [Compound 56, 2,3-Difluoro-N-[3-fluoro-4-(6-oxo-5,6,7,8,9,10-hexahydrobenzo[c][1,8]naphthyridin-1-ylamino)-phenyl]-1-benzamide] | 1 to 10 | – |
| O=C(Nc1ccc(Nc2ccnc3[nH]c(=O)c4c(c23)CCCC4)c(F)c1)c1ccc(F)cc1C(F)(F)F [Compound 52, 4-Fluoro-N-[3-fluoro-4-(6-oxo-5,6,7,8,9,10-hexahydrobenzo[c][1,8]naphthyridin-1-ylamino)-phenyl]-2-trifluoromethyl-benzamide] | 1 to 10 | – |
| O=c1[nH]c2nccc(Nc3ccccc3)c2c2occc12 [Compound 37, 9-Phenylamino-5H-furo[3,2-c][1,8]naphthyridin-4-one] | 101 to 1000 | – |
| O=C(Nc1ccc(Nc2ccnc3[nH]c(=O)c4c(c23)CCNC4)cc1)c1ccc(F)cc1 [Compound 25, 4-Fluoro-N-[4-(9-oxo-5,6,7,8,9,10-hexahydro-1,7,10-triaza-phenanthren-4-ylamino)-phenyl]-benzamide] | 101 to 1000 | – |

| SMILES | IC50 [nM] | IC50 (read-out: Aurora A IC50) [nM] |
| --- | --- | --- |
| O=C(Nc1ccc(Nc2ccnc3[nH]c(=O)c4n[nH]cc4c23)cc1)c1ccccc1 [Compound 33, N-(4-(4-oxo-4,5-dihydro-2H-pyrazolo[3,4-c][1,8]naphthyridin-9-ylamino)phenyl)benzamide] | 11 to 100 | – |
| O=C(Nc1ccc(Nc2ccnc3[nH]c(=O)c4c(c23)CCNC4)cc1)c1ccc(F)c(F)c1 [Compound 26, 3,4-Difluoro-N-[4-(9-oxo-5,6,7,8,9,10-hexahydro-1,7,10-triaza-phenanthren-4-ylamino)-phenyl]-benzamide] | 11 to 100 | – |
| O=C(Nc1ccc(Nc2ccnc3[nH]c(=O)c4c(c23)CCNC4)cc1)c1ccc(F)cc1C(F)(F)F [Compound 24, 4-Fluoro-N-[4-(9-oxo-5,6,7,8,9,10-hexahydro-1,7,10-triaza-phenanthren-4-ylamino)-phenyl]-2-trifluoromethyl-benzamide] | – | 11 to 100 |
| O=C(Nc1ccc(Nc2ccnc3[nH]c(=O)c4c(c23)CCCC4)c(F)c1)c1cccc(F)c1 [Compound 53, 3-Fluoro-N-[3-fluoro-4-(6-oxo-5,6,7,8,9,10-hexahydrobenzo[c][1,8]naphthyridin-1-ylamino)-phenyl]-2-benzamide] | 1 to 10 | – |
| Cc1cccc(-n2nc(C(C)(C)C)cc2NC(=O)Nc2ccc(Oc3ccnc4[nH]c(=O)c5c(c34)CCCC5)cc2)c1 [Compound 51, 1-(5-tert-Butyl-2-m-tolyl-2H-pyrazol-3-yl)-3-[4-(6-oxo-5,6,7,8,9,10-hexahydro-benzo[c][1,8]naphthyridin-1-yloxy)-phenyl]-urea] | – | 101 to 1000 |
| O=C(Nc1ccc(Nc2ccnc3[nH]c(=O)c4c(c23)CCCC4)cc1)c1ccc(F)c(F)c1 [Compound 8, 3,4-Difluoro-N-[4-(6-oxo-5,6,7,8,9,10-hexahydrobenzo[c][1,8]naphthyridin-1-ylamino)-phenyl]-1-benzamide] | 1 to 10 | – |
| O=C(Nc1ccc(Nc2ccnc3[nH]c(=O)c4c(c23)CCCC4)cc1)c1cccc(F)c1F [Compound 7, 2,3-Difluoro-N-[4-(6-oxo-5,6,7,8,9,10-hexahydrobenzo[c][1,8]naphthyridin-1-ylamino)-phenyl]-1-benzamide] | 1 to 10 | – |
| O=C(Nc1ccc(Nc2ccnc3[nH]c(=O)c4c(c23)CCN(Cc2ccccc2)C4)cc1)c1ccccc1 [Compound 29, N-[4-(7-Benzyl-9-oxo-5,6,7,8,9,10-hexahydro-1,7,10-triaza-phenanthren-4-ylamino)-phenyl]-benzamide] | 101 to 1000 | – |
| O=C(Nc1ccc(Oc2ccnc3[nH]c(=O)c4c(c23)CCCC4)cc1)c1cccn(-c2ccc(F)cc2)c1=O [Compound 48, 1-(4-Fluoro-phenyl)-2-oxo-1,2-dihydro-pyridine-3-carboxylic acid [4-(6-oxo-5,6,7,8,9,10-hexahydro-benzo[c][1,8]naphthyridin-1-yloxy)-phenyl]-amide] | 101 to 1000 | – |
| Nc1ccc(Oc2ccnc3[nH]c(=O)c4c(c23)CCCC4)cc1 [Compound 46, 1-(4-Amino-phenoxy)-7,8,9,10-tetrahydro-5H-benzo[c][1,8]naphthyridin-6-one] | 101 to 1000 | – |
| O=C(Nc1ccc(Nc2ccnc3[nH]c(=O)c4c(c23)CCCC4)cc1)c1cc(F)cc(F)c1 [Compound 9, 3,5-Difluoro-N-[4-(6-oxo-5,6,7,8,9,10-hexahydrobenzo[c][1,8]naphthyridin-1-ylamino)-phenyl]-1-benzamide] | 1 to 10 | – |
| O=C(Nc1ccc(Nc2ccnc3[nH]c(=O)c4c(c23)CNCC4)cc1)c1ccccc1 [Compound 28, N-[4-(9-oxo-5,6,7,8,9,10-hexahydro-1,6,10-triaza-phenanthren-4-ylamino)-phenyl]-benzamide] | 101 to 1000 | – |
| COc1cccc(Nc2ccnc3[nH]c(=O)c4ccoc4c23)c1 [Compound 40, 9-(3-Methoxy-phenylamino)-5H-furo[3,2-c][1,8]naphthyridin-4-one] | 101 to 1000 | – |
| O=C(Nc1ccc(Nc2ccnc3[nH]c(=O)c4c(c23)CCNC4)cc1)c1ccccc1 [Compound 27, N-[4-(9-oxo-5,6,7,8,9,10-hexahydro-1,7,10-triaza-phenanthren-4-ylamino)-phenyl]-benzamide] | 101 to 1000 | – |
| O=C(Nc1ccc(Nc2ccnc3[nH]c(=O)c4c(c23)CCCC4)cc1)c1ccccc1 [Compound 5, N-[4-(6-Oxo-5,6,7,8,9,10-hexahydrobenzo[c][1,8]naphthyridin-1-ylamino)-phenyl]-benzamide] | 11 to 100 | – |
| O=C(Nc1ccc(Nc2ccnc3[nH]c(=O)c4ccoc4c23)cc1)c1ccccc1 [Compound 36, N-[4-(4-oxo-4,5-dihydro-furo[3,2-c][1,8]naphthyridin-9-ylamino)-phenyl]-benzamide] | 11 to 100 | – |
